Where two headings read alike, the source gives them in different places.
Legend:
[1] = Pharmacokinetic studies in plasma and brain of mice after i.p. injection; format: in vivo, mouse; conditions: for Cmax (mean ± SEM) Brain: normalized to free base dose; for Sex-dependent difference: Brain Total exposure (AUC) / Sex-dependent difference: Plasma Total exposure (AUC): standard t-test, F female, M male, NS not statistically different; for Brain level at 4 h post-treatment: LLOQ 5.0 ng/ml; for Brain Cmax and AUC compared to equivalent dosing with (2R,6R)-HNK: from Table 1
[2] = system: rats; conditions: 10 mg/kg, i.p., ref [26]; cited from earlier work
[3] = i.p. administration to mice, ref [19], cited from earlier work
[4] = system: male mice; assay: Forced swim test immobility time 24 h after i.p. treatment; format: in vivo, mouse; conditions: for Minimal effective dose to reduce immobility time in the forced swim test: 24 h after injection; for Shape of dose response curve for forced swim test immobility: tested range up to 100 mg/kg
[5] = i.p.; ref [4]; cited from earlier work
[6] = target: N-methyl-D-aspartate receptor (NMDAR); conditions: cited from earlier work
[7] = system: mice; conditions: i.p., cited from earlier work; for Lowest dose reducing forced swim test immobility time: ref [4]
[8] = females, but not males, i.p. 5 mg/kg
[9] = read-out: NMDAR binding affinity, ref [31]
[10] = both sexes, i.p. 5 mg/kg, 10 min was the earliest time point

Structure (SMILES) | Cmax (mean ± SEM) Brain ([1]; female CD-1 mice, i.p. 5 mg/kg) [ng/g•mg/kg] | B:P ratio (brain to plasma AUC ratio) ([1]; female mice, i.p. 5 mg/kg) | t1/2 Brain (terminal half-life) ([1]; female mice, i.p. 5 mg/kg) [min] | t1/2 Plasma (terminal half-life) ([1]; female mice, i.p. 5 mg/kg) [min] | Cmax (mean ± SEM) Brain ([1]; male CD-1 mice, i.p. 5 mg/kg) [ng/g•mg/kg] | B:P ratio (brain to plasma AUC ratio) ([1]; male mice, i.p. 5 mg/kg) | t1/2 Brain (terminal half-life) ([1]; male mice, i.p. 5 mg/kg) [min] | t1/2 Plasma (terminal half-life) ([1]; male mice, i.p. 5 mg/kg) [min] | Sex-dependent difference: Brain Total exposure (AUC) [1] | Sex-dependent difference: Plasma Total exposure (AUC) [1] | Minimal effective dose to reduce immobility time in the forced swim test [4] [mg/kg] | other results
N[C@@]1(c2ccccc2Cl)C[C@H](O)CCC1=O [(2R,4R)-HNK] | 490 ± 26.4 | 1.2 | 29 | 29 | 431 ± 43.5 | 1.3 | 38 | 35 | M > F | M > F |  | 
N[C@@]1(c2ccccc2Cl)C[C@@H](O)CCC1=O [(2R,4S)-HNK] | 495 ± 28.7 | 1.0 | 15 | 44 | 758 ± 21.4 | 1.1 | 32 | 39 | M > F | M > F |  | Brain level at 4 h post-treatment [1, 8]: below LLOQs
N[C@@]1(c2ccccc2Cl)CC[C@@H](O)CC1=O [(2R,5R)-HNK] | 152 ± 8.8 | 1.4 | 28 | 31 | 142 ± 5.6 | 1.2 | 27 | 30 |  | M > F |  | 
N[C@@]1(c2ccccc2Cl)CC[C@H](O)CC1=O [(2R,5S)-HNK] | 154 ± 3.9 | 1.0 | 27 | 29 | 106 ± 6.8 | 0.9 | 27 | 28 | F > M | F > M |  | 
N[C@@]1(c2ccccc2Cl)CCC[C@@H](O)C1=O [(2R,6R)-HNK, (2R,6R)-hydroxynorketamine] | 530 ± 17.2 | 1.3 | 34 | 36 | 380 ± 19.3 | 1.3 | 34 | 38 | F > M | F > M | 10 | Reversal of learned helplessness [2]: reversed learned helplessness; Time of peak plasma levels ([3]; plasma collected at 2.5 and 5 min post-injection): 2.5 min; Time of peak brain levels [3]: 5 min; Shape of dose response curve for forced swim test immobility [4]: did not demonstrate U-shaped dose responses; Lowest dose reducing escape failures in the learned helplessness test [5]: 3 mg/kg; Ki ([6]; read-out: Ki, potency to bind or inhibit NMDARs, ref [4],[19],[31]-[35]): > 100 µM; Lowest dose reducing forced swim test immobility time [7]: 5 mg/kg; Effect on forced swim test immobility time ([7]; mice, 10 mg/kg, ref [17]): reduced forced swim test immobility time
N[C@@]1(c2ccccc2Cl)CCC[C@H](O)C1=O [(2R,6S)-HNK] | 166 ± 12.3 | 0.7 | 23 | 47 | 173 ± 5.4 | 0.6 | 43 | 55 | M > F | M > F | 1 | Brain level at 4 h post-treatment [1, 8]: below LLOQs; Brain Cmax and AUC compared to equivalent dosing with (2R,6R)-HNK [1]: approximately two-fold lower; Shape of dose response curve for forced swim test immobility [4]: U-shaped dose response curves; Ki [6, 9]: > 100 µM
N[C@]1(c2ccccc2Cl)C[C@H](O)CCC1=O [(2S,4R)-HNK] | 190± 13.7 | 1.0 | 21 | 47 | 160 ± 10.2 | 0.9 | 23 | 48 |  |  |  | Brain level at 4 h post-treatment ([1]; both sexes, i.p. 5 mg/kg): below LLOQs
N[C@]1(c2ccccc2Cl)C[C@@H](O)CCC1=O [(2S,4S)-HNK] | 234 ± 10.9 | 0.9 | 35 | 42 | 127 ± 9.5 | 0.7 | 34 | 39 | F > M | F > M |  | 
N[C@]1(c2ccccc2Cl)CC[C@@H](O)CC1=O [(2S,5R)-HNK] | 258 ± 15.4 | 1.0 | 31 | 28 | 242 ± 9.8 | 0.7 | 40 | 37 | M > F | M > F |  | Tmax brain ([1]; male mice, i.p. 5 mg/kg): 30 min
N[C@]1(c2ccccc2Cl)CC[C@H](O)CC1=O [(2S,5S)-HNK] | 129 ± 2.8 | 1.3 | 17 | 34 | 138 ± 8.3 | 1.2 | 16 | 27 |  |  |  | Brain level at 4 h post-treatment ([1]; both sexes, i.p. 5 mg/kg): below LLOQs
N[C@]1(c2ccccc2Cl)CCC[C@@H](O)C1=O [(2S,6R)-HNK] | 177 ± 19.8 | 1.4 | 45 | 47 | 117 ± 30.6 | 1.2 | 45 | 45 | F > M | F > M | 3 | Brain Cmax and AUC compared to equivalent dosing with (2R,6R)-HNK [1]: approximately three-fold lower; Shape of dose response curve for forced swim test immobility [4]: U-shaped dose response curves; Ki [6, 9]: > 100 µM
N[C@]1(c2ccccc2Cl)CCC[C@H](O)C1=O [(2S,6S)-HNK, (2S,6S)-hydroxynorketamine] | 993 ± 27.1 | 1.2 | 44 | 46 | 712 ± 47.3 | 1.0 | 41 | 44 | F > M | F > M | 30 | Cmax and AUC, fold greater than those of (2R,6R)-HNK ([1]; male mice, equivalent doses): 2-3 fold; Shape of dose response curve for forced swim test immobility [4]: did not demonstrate U-shaped dose responses; Lowest dose reducing escape failures in the learned helplessness test [5]: 75 mg/kg; Lowest dose reducing forced swim test immobility time [7]: 25 mg/kg; Effect on forced swim test immobility time and measures of anhedonia following chronic stress ([7]; mice, 20 mg/kg, ref [23]): reduced forced swim test immobility time and measures of anhedonia
C[C@@H]1CC[C@@](N)(c2ccccc2Cl)C(=O)[C@@H]1O [(5R)-methyl-(2R,6R)-HNK, (5R)-methyl-(2R,6R)-hydroxynorketamine] | 352 ± 22.4 | 0.4 | 41 | 49 | 324 ± 13.0 | 0.4 | 48 | 49 | M > F | M > F | 1 | Brain to plasma AUC ratio ([1]; both sexes, i.p. 5 mg/kg): 0.4; Plasma elimination half-life ([1]; both sexes, i.p. 5 mg/kg): 49 min; Tmax brain [1, 10]: 10 min; Tmax plasma (time of observed maximal concentrations) [1, 10]: 10 min; Doses at which immobility time was reduced relative to vehicle ([4]; 24 h after treatment): 1 to 10 mg/kg
CNC1(c2ccccc2Cl)CCCCC1=O (stereo not shown) [ketamine, reference compound] |  |  |  |  |  |  |  |  |  |  |  | Ki ([6]; read-out: Ki, inhibitory actions on NMDARs, ref [19],[31],[32]): 0.25 to 1.06 µM
